Results on five compounds are retold here after US7105516B2, “Compounds for the treatment of premature ejaculation” (Bristol-Myers Squibb Company, priority 2002, dated 2006).

One may read the Ki as the dissociation constant of the complex between target and ligand, obtained from inhibition or displacement.

Where two headings read alike, the source gives them in different places. Bounds are passed on as bounds.

The target in test [1] is T1, human serotonin transporters (Homo sapiens, UniProt P31645).
T1 construct: expressed in transfected cells; membrane homogenates
The test is described as follows: Serotonin Transporter Binding Assay ([3H]-citalopram displacement, HEK-hSERT cell membranes). Conditions: 1 nM [3H]-citalopram, 1 hr at 25° C. As to the method:
HEK-293 cells that stably express human serotonin transporters (HEK-hSERT cells) were grown at 37° C. in 5% CO2 as a monolayer in medium consisting of EMEM supplemented with 10% fetal bovine serum and G418 sulfate (500 μg/mL). […] Cells were transferred from plates to polypropylene tubes (16×100 mm), centrifuged at 1,200×g for 5 min and were frozen at −80° C. until assay. Following centrifugation, pellets were resuspended by homogenization in buffer consisting of 50 mM Tris (pH 7.7 at 25° C.), 120 mM NaCl and 5 mM KCl and then centrifuged at 32,000×g for 10 min. Following centrifugation, supernatants were discarded and pellets were resuspended in buffer consisting of 50 mM Tris (pH 7.4 at 25° C.), 150 mM NaCl and 5 mM KCl. Membrane homogenates (200 μl/plate) were incubated with 1 nM [^3H]-citalopram (specific activity=85 Ci/mMol) and increasing concentrations of test compounds for 1 hr at 25° C. in a total volume of 250 μl. The assay buffer consisted of 50 mM Tris (pH 7.4 at 25° C.), 120 mM NaCl and 5 mM KCl (pH 7.4 with conc. HCl). Plates were incubated for 1 hr at 25° C., then filtered through 0.5% PEI treated Whatman GF/B filters using a Brandel cell harvester. Filters were washed three times with 3 mL of ice-cold tris wash buffer. Non-specific binding was defined with 10 μM fluoxetine. Amount of radioligand bound in the presence and absence of competitor was analyzed by plotting (−)log drug concentration versus the amount of radioligand specifically bound. The midpoint of the displacement curve (IC50, nM), signifies the potency.

Test [2] concerns the target T2, human norepinephrine transporters (Homo sapiens, UniProt P23975).
T2 construct: the text also calls them 'HEK-hNET cells'); membrane homogenates
In words: Norepinephrine Transporter Binding Assay ([3H]-nisoxetine displacement, hNET cell membranes). Conditions: 2.7 nM [3H]-nisoxetine, 1 hr at 4° C., read-out: NE reuptake binding Ki. As to the method:
MDCK cells that stably express human norepinephrine transporters (HEK-hNET cells) were supplied by Receptor Biology, Inc. Pellets were resuspended by homogenization in buffer consisting of 50 mM Tris (pH 7.4 at 25° C.), 120 mM NaCl and 5 mM KCl. Membrane homogenates (200 μl/well, 8 ug protein) were incubated with 2.7 nM [^3H]-nisoxetine (specific activity=80 Ci/mMol) and increasing concentrations of test compounds for 1 hr at 4° C. in a total volume of 250 μl. The assay buffer consisted of 50 mM Tris (pH 7.4 at 25° C.), 120 mM NaCl and 5 mM KCl (pH 7.4 with conc. HCl). Plates were incubated for 1 hr at 4° C., then filtered through 0.5% PEI treated Whatman GF/B filters using a Brandel cell harvester. Filters were washed three times with 3 mL of ice-cold tris wash buffer. Non-specific binding was defined with 10 μM desipramine. Amount of radioligand bound in the presence and absence of competitor was analyzed by plotting (−)log drug concentration versus the amount of radioligand specifically bound. The midpoint of the displacement curve (IC50, nM), signifies the potency. Ki values were calculated using the method of Cheng and Prusoff (1973).

The mark [3] stands for this setting: read-out: 5-HT reuptake binding Ki.

T1 sequence (P31645 whole entry): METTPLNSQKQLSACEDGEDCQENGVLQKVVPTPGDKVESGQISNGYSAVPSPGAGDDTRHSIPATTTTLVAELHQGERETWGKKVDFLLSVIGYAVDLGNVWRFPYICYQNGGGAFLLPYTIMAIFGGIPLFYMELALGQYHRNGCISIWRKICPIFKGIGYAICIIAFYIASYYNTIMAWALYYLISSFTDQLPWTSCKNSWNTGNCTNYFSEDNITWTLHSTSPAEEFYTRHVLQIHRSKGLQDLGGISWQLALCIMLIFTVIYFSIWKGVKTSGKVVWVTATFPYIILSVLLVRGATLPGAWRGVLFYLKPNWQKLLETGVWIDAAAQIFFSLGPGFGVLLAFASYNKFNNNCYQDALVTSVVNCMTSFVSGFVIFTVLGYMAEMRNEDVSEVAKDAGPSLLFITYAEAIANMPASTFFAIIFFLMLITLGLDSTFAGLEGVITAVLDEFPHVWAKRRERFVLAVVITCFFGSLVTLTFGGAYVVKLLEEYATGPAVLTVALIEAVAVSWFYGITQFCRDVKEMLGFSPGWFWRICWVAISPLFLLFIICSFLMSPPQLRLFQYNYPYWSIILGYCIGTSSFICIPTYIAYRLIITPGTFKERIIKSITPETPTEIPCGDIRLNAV
T2 sequence (P23975 whole entry): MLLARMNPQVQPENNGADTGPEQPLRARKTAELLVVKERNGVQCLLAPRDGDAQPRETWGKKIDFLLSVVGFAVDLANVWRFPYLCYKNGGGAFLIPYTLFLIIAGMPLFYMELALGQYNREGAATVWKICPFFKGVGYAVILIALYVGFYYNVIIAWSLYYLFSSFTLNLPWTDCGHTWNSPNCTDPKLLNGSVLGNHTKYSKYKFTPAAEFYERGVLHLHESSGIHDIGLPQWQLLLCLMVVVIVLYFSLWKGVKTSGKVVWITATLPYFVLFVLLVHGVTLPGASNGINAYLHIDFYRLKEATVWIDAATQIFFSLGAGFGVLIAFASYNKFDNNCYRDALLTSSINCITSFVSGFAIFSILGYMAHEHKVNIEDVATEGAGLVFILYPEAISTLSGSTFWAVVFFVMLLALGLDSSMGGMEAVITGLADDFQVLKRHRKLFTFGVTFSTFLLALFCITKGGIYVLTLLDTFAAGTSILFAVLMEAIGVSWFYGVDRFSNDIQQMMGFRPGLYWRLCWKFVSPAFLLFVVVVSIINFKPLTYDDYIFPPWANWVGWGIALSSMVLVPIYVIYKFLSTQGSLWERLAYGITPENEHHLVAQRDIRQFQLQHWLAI

As to `CN(C)C[C@H]1CCC[C@@H]1c1cn(C)c2ccc(C#N)cc12` (relative stereo) [Example 32, Trans-3-(2-dimethylaminomethyl-cyclopentyl)-1-methyl-1H-indole-5-carbonitrile], the results for the inhibition constant (Ki) in test [1] (5-HT reuptake binding Ki) and in test [2] were 1 to 10 nM and above 1000 nM, respectively.
As for `CN(C)C[C@H]1CCC[C@@H]1c1ccc2[nH]cc(C#N)c2c1` (relative stereo) [Example 34, Trans-5-(2-dimethylaminomethyl-cyclopentyl)-1H-indole-3-carbonitrile], the Ki in test [1] (setting [3]) was 1 to 10 nM; in test [2] it was above 1000 nM.
Consider `CCN(CC)C[C@H]1CCC[C@@H]1c1c[nH]c2ccc(C#N)cc12` (relative stereo) [Example 28, Trans-3-(2-diethylaminomethyl-cyclopentyl)-1H-indole-5-carbonitrile], for which the Ki in test [1] (5-HT reuptake binding Ki) was 100 to 500 nM; in test [2] it was above 1000 nM.
As for `CN(Cc1ccccc1)C[C@H]1CCC[C@@H]1c1ccc2[nH]cc(C#N)c2c1` (relative stereo) [Example 40, Trans-5-{2-[(benzyl-methyl-amino)-methyl]-cyclopentyl}-1H-indole-3-carbonitrile], the Ki is 10 to 100 nM in test [1] (setting [3]) and above 1000 nM in test [2].
As for `N#Cc1ccc2[nH]cc([C@H]3CCC[C@@H]3CN3CCCC3)c2c1` (relative stereo) [Example 30, Trans-3-(pyrrolidin-1-ylmethyl-cyclopentyl)-1H-indole-5-carbonitrile], the figures for the Ki in test [1] (5-HT reuptake binding Ki) and in test [2] were 1 to 10 nM and above 1000 nM, respectively.
